pIC50: −log10 of the molar value.
Assays:
[1] = target: MPO (purified from HL60 cells) (Homo sapiens (Human), UniProt P05164); test: MPO activity (IC50), luminol chemiluminescence assay; type: biochemical; settings: PBS pH7.4, luminol 100 μM, H2O2 50 μM, chemiluminescence recorded after 15 minutes
Method: (§1) The experiments were performed in phosphate-buffered saline (PBS), pH7.4. A 10 mM luminol (A4695, Sigma Aldrich, St Louis, MO, USA) stock was prepared in distilled water and further diluted in PBS to a final concentration of 100 μM. H2O2 was prepared as 1 mM stock in PBS, yielding a final concentration of 50 μM after addition into the assay. The compounds were serially diluted in DMSO in a separate plate as a 100× stock solution, and MPO (purified from HL60 cells) and TPO (produced in insect cells, RSR Ltd, Cardiff, UK), were diluted to yield a final concentration of approximately 14 and 150 ng/mL, generating 5600 and 9300 light counts per seconds (LCPS) upon incubation with luminol.
(§2) The experiment was run by pipetting 2 μL 100× stock solution of the compound and 200 μL diluted enzyme in PBS into wells in a 96-well Optiplate (6005290, Perkin Elmer/Thermo Fischer, Waltham, MS, USA), followed by addition of 10 μL H2O2 containing PBS. Chemiluminescence measurement (Perkin Elmer Wallac Microbeta Trilux 1450-029 (12-detector), Turkuu, Finland) was started directly and recorded after 2, 10 and 15 minutes.

[2] = target: TPO (produced in insect cells, RSR Ltd) (Homo sapiens (Human), UniProt P07202); test: TPO activity (IC50), luminol chemiluminescence assay; type: biochemical; settings: PBS pH7.4, luminol 100 μM, H2O2 50 μM, chemiluminescence recorded after 15 minutes
Method: as §1, §2

Sequence of MPO (purified from HL60 cells) (P05164 49-745): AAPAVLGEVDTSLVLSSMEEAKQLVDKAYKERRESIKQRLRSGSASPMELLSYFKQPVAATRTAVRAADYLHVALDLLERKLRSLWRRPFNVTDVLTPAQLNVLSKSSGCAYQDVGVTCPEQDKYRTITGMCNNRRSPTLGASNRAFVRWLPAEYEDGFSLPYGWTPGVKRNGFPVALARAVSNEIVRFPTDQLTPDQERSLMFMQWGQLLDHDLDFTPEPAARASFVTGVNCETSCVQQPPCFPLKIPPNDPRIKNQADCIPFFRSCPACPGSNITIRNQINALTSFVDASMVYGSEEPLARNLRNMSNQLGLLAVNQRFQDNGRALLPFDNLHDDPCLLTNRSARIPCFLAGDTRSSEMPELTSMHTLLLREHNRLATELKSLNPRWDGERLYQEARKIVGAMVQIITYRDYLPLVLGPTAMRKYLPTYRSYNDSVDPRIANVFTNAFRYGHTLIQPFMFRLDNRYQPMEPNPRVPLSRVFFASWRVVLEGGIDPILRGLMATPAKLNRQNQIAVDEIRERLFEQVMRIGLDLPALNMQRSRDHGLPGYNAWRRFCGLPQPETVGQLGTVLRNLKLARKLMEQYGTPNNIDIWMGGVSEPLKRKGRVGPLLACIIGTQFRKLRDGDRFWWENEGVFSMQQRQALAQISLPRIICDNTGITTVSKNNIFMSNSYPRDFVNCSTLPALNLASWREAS
Sequence of TPO (produced in insect cells, RSR Ltd) (P07202 19-933): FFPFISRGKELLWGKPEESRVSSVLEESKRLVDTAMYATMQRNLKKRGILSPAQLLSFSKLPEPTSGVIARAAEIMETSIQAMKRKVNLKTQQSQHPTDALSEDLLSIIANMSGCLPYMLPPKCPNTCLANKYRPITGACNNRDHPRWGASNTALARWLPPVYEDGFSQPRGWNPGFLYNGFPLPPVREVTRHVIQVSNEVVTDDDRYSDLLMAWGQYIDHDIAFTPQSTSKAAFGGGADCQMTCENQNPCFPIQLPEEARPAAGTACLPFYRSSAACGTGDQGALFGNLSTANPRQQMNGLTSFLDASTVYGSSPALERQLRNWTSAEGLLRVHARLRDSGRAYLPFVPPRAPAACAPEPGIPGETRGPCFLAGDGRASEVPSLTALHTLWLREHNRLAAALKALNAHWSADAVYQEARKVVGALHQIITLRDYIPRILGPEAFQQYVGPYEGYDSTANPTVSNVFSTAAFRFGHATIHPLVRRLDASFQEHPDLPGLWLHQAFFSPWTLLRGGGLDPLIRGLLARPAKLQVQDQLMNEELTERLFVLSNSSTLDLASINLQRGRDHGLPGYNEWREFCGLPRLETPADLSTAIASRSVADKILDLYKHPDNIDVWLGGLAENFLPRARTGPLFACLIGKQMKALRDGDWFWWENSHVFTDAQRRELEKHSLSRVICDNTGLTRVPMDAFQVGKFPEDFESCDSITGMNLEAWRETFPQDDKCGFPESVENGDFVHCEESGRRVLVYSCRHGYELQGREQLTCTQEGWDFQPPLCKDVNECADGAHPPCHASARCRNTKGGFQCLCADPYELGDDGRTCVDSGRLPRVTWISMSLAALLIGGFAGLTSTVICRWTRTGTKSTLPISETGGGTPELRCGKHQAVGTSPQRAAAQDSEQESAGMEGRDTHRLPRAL

| Structure (SMILES) | pIC50 [1] | pIC50 [2] |
| --- | --- | --- |
| O=c1[nH]c(=S)n(Cc2ccc(Cl)cc2[C@H]2COCCN2)c2cc[nH]c12 (single isomer, unassigned) [Example 4a] | 7.73 | 6.43 |
| O=c1[nH]c(=S)n(Cc2ccccc2[C@@H]2C[C@@H](C(F)(F)F)CCN2)c2cc[nH]c12 (stereo in doubt) [Example 17b, rac-2-thioxo-1-(2-((2R,4R)-4-(trifluoromethyl)piperidin-2-yl)benzyl)-1,2,3,5-tetrahydro-4H-pyrrolo[3,2-d]pyrimidin-4-one] | 8.47 | 6.20 |
| O=c1[nH]c(=S)n(Cc2ccccc2[C@H]2C[C@@H](C(F)(F)F)CCN2)c2cc[nH]c12 (single isomer, unassigned) [Example 10b] | 8.82 | 6.37 |
| O=c1[nH]c(=S)n(Cc2ccccc2[C@H]2CC(F)(F)CCN2)c2cc[nH]c12 (single isomer, unassigned) [Example 12b] | 8.57 | 6.49 |
| O=c1[nH]c(=S)n(Cc2ccccc2[C@@H]2C[C@H](C(F)(F)F)CCN2)c2nc[nH]c12 [Example 13b, 2-Thioxo-3-(2-((2S,4R)-4-(trifluoromethyl)piperidin-2-yl)benzyl)-1,2,3,7-tetrahydro-6H-purin-6-one] | 8.64 | 6.37 |
| O=c1[nH]c(=S)n(Cc2ccccc2[C@H]2C[C@@H](C(F)(F)F)CCN2)c2nc[nH]c12 [Example 13a, 2-Thioxo-3-(2-((2R,4S)-4-(trifluoromethyl)piperidin-2-yl)benzyl)-1,2,3,7-tetrahydro-6H-purin-6-one] | 7.80 | 5.98 |
| CN1CCNC(c2ccccc2Cn2c(=S)[nH]c(=O)c3[nH]ccc32)C1 (centres unmarked) [Example 9, 1-(2-(4-Methylpiperazin-2-yl)benzyl)-2-thioxo-1,2,3,5-tetrahydro-4H-pyrrolo[3,2-d]pyrimidin-4-one] | 8.00 | 5.90 |
| O=c1[nH]c(=S)n(Cc2cccnc2[C@H]2C[C@@H](C(F)(F)F)CCN2)c2cc[nH]c12 (single isomer, unassigned) [Example 16a] | 7.50 | 5.79 |
| O=c1[nH]c(=S)n(Cc2ccccc2[C@H]2CC(F)(F)CCN2)c2cc[nH]c12 (single isomer, unassigned) [Example 12a] | 7.57 | 6.17 |
| O=c1[nH]c(=S)n(Cc2ccccc2[C@@H]2CCCCCN2)c2cc[nH]c12 (single isomer, unassigned) [Example 6b] | 8.55 | 6.52 |
| O=c1[nH]c(=S)n(Cc2ccc(Cl)cc2[C@H]2CCCCCN2)c2nc[nH]c12 [Example 7, (R)-3-(2-(Azepan-2-yl)-4-chlorobenzyl)-2-thioxo-1,2,3,7-tetrahydro-6H-purin-6-one] | 8.15 | 6.21 |

Other lines, results leading:

| pIC50 [1] | pIC50 [2] | Structure (SMILES) |
| --- | --- | --- |
| 8.30 | 6.17 | NC1(c2cccc(Cn3c(=S)[nH]c(=O)c4[nH]ccc43)c2)CCC1 [Example 27, 1-(3-(1-Aminocyclobutyl)benzyl)-2-thioxo-1,2,3,5-tetrahydro-4H-pyrrolo[3,2-d]pyrimidin-4-one] |
| 8.57 | 6.39 | O=c1[nH]c(=S)n(Cc2ccccc2[C@H]2C[C@H](C(F)(F)F)CCN2)c2nc[nH]c12 (single isomer, unassigned) [Example 18b] |
| 8.52 | 6.17 | O=c1[nH]c(=S)n(Cc2ccccc2C2CCCNC2)c2cc[nH]c12 (centres unmarked) [Example 28, 1-(2-(Piperidin-3-yl)benzyl)-2-thioxo-1,2,3,5-tetrahydro-4H-pyrrolo[3,2-d]pyrimidin-4-one] |
| 7.94 | 6.02 | O=c1[nH]c(=S)n(Cc2ccncc2[C@H]2C[C@@H](C(F)(F)F)CCN2)c2cc[nH]c12 (racemic) [Example 22, rac-2-Thioxo-1-((3-((2R,4S)-4-(trifluoromethyl)piperidin-2-yl)pyridin-4-yl)methyl)-1,2,3,5-tetrahydro-4H-pyrrolo[3,2-d]pyrimidin-4-one] |
| 8.89 | 6.24 | O=c1[nH]c(=S)n(Cc2ccccc2[C@H]2C[C@@H](C(F)F)CCN2)c2cc[nH]c12 (single isomer, unassigned) [Example 19b] |

— patent US20240166642A1, “INHIBITORS OF MYELOPEROXIDASE” (ASTRAZENECA AB, priority 2022, published 2024)
